Experimental data reported in EPA's ToxRefDB 2.

What was measured:
rat [1] = conditions: Prenatal developmental toxicity study, sprague dawley, Oral, Gavage/Intubation, dose end: 16 GD, group: maternal
rat [2] = conditions: Subchronic oral toxicity in rodents, wistar, Gavage/Intubation, dose end: 90 day, group: systemic
rat [3] = conditions: Subchronic oral toxicity in rodents, wistar, Gavage/Intubation, dose end: 90 day, group: systemic; remark: listed apart in the source
rat [4] = conditions: Subchronic dermal toxicity, sprague dawley, Topical, dose end: 14 week, group: systemic
rat [5] = conditions: Multigenerational reproductive toxicity study, Sprague-Dawley, Oral, Feed, dose end: 1 generation
rat [6] = conditions: Sub-acute dermal toxicity, other, Topical, dose end: 28 day, group: systemic
rat [7] = conditions: Subchronic oral toxicity in rodents, sprague dawley, Feed, dose end: 3 month, group: systemic
rat [8] = conditions: Multigenerational reproductive toxicity study, sprague dawley, Oral, Feed, dose end: 2 generation
rat [9] = conditions: Subchronic inhalation toxicity, other, Nose-Only, dose end: 90 day, group: systemic, systemic / pathology microscopic / nose / [other] + systemic / pathology microscopic / nose / degeneration + systemic / pathology …
rabbit = conditions: Prenatal developmental toxicity study, new zealand white, Oral, Gavage/Intubation, dose end: 18 GD
mouse [10] = conditions: Carcinogenicity, b6c3f1, Oral, Feed, dose end: 24 month, group: systemic
mouse [11] = conditions: Carcinogenicity, b6c3f1, Oral, Feed, dose end: 24 month, group: systemic; remark: listed apart in the source
dog = conditions: Chronic toxicity; beagle; Oral; Feed; dose end: 53 week; group: systemic; systemic / clinical chemistry / alkaline phosphatase (alp/alk) / alkaline phosphatase (alp/alk) + systemic / clinical chemistry / …
rat [12] = conditions: Prenatal developmental toxicity study, sprague dawley, Oral, Gavage/Intubation, dose end: 15 GD
rat [13] = conditions: Combined chronic toxicity/carcinogenicity, fischer, Oral, Feed, dose end: 24 month, group: systemic
mouse [14] = conditions: Subchronic oral toxicity in rodents, b6c3f1, Feed, dose end: 96 day, group: systemic, systemic / organ weight / liver / absolute + systemic / organ weight / liver / relative to body weight + systemic / organ weight / liver / …
rat [15] = conditions: Multigenerational reproductive toxicity study, fischer, Oral, Feed, dose end: 2 generation
[16] = systemic / in life observation / clinical signs / salivation + systemic / in life observation / food consumption / food consumption
[17] = systemic / pathology microscopic / pharynx / lesion(s) (nos)
[18] = systemic / in life observation / clinical signs / righting ability
[19] = systemic / in life observation / clinical signs / righting ability + systemic / in life observation / body weight / body weight + systemic…
[20] = systemic / pathology microscopic / bone marrow / hyperplasia
[21] = systemic / pathology microscopic / bone marrow / hyperplasia + systemic / hematology / mean corpuscular (cell) volume (mcv) / mean …
[22] = group: offspring, systemic / in life observation / body weight / offspring (pup) weight + systemic / in life observation / clinical signs / reduced activity
[23] = group: parental, systemic / clinical chemistry / thyroid stimulating hormone (thyrotropin) (tsh) / thyroid stimulating hormone (=thyrotropin) (tsh) + …
[24] = group: parental, systemic / in life observation / clinical signs / nasal discharge + systemic / in life observation / body weight / body weight + systemic / …
[25] = group: reproductive, reproductive / offspring survival early / dead fetuses / dead fetuses + reproductive / offspring survival early / litter size / litter size…
[26] = group: reproductive, reproductive / reproductive performance / reproductive performance other / NOS + reproductive / reproductive performance / pregnancy index…
[27] = systemic / hematology / leukocyte (wbc) count differential / leukocyte (wbc) + systemic / hematology / neutrophils / neutrophils + systemic…
[28] = systemic / pathology microscopic / thyroid gland / altered colloid + systemic / pathology microscopic / thyroid gland / hypertrophy
[29] = systemic / clinical chemistry / cholesterol / cholesterol + systemic / clinical chemistry / phosphorus / phosphorus + systemic / pathology …
[30] = group: offspring, developmental / developmental malformation / trunk / umbilical hernia + developmental / offspring survival late / [other] / [other] + …
[31] = group: parental, systemic / in life observation / clinical signs / body cold to touch + systemic / in life observation / clinical signs / drooping eyelids (…
[32] = group: parental, systemic / pathology microscopic / thyroid gland / colloid content + systemic / pathology microscopic / thyroid gland / hypertrophy + …
[33] = group: reproductive, reproductive / reproductive performance / dystocia / dystocia + reproductive / reproductive performance / postimplantation loss / …
[34] = group: developmental, developmental / developmental malformation / bone / misshapen
[35] = group: maternal, systemic / in life observation / body weight / body weight gain + systemic / organ weight / liver / absolute + systemic / organ weight / …
[36] = systemic / pathology gross / intestine small / discolored + systemic / pathology microscopic / intestine small / [other] + systemic / …
[37] = systemic / pathology microscopic / intestine small / hyperplasia + systemic / pathology microscopic / intestine small / hypertrophy + …
[38] = group: developmental, developmental / developmental malformation / bone / incomplete ossification + developmental / developmental malformation / bone / short …
[39] = group: maternal, systemic / in life observation / body weight / body weight + systemic / in life observation / body weight / body weight gain + systemic / in…
[40] = systemic / in life observation / body weight / body weight gain + systemic / pathology microscopic / kidney / adenocarcinoma + systemic / …
[41] = group: offspring, systemic / in life observation / body weight / offspring (pup) weight + systemic / pathology microscopic / liver / vacuolization
[42] = group: parental, systemic / organ weight / liver / absolute + systemic / organ weight / liver / relative to body weight

## CCCCCCCCCCCCN(CCCN)CCCN [1,3-Propanediamine, N-(3-aminopropyl)-N-dodecyl-]
Rat [1]; systemic / in life observation / clinical signs / salivation
  LEL: 50 mg/kg/day
Rat [1]; [16]
  LOAEL: > 200 mg/kg/day
  NEL: 25 mg/kg/day
  NOAEL: ≥ 200 mg/kg/day
Rat [2]; systemic / pathology microscopic / kidney / basophilia + systemic / pathology microscopic / kidney / dilatation
  LOAEL: 90 mg/kg/day
Rat [2]; [17]
  LEL: 5 mg/kg/day
  NEL: < 5 mg/kg/day
Rat [3]; [18]
  LEL: 10 mg/kg/day
  LOAEL: 10 mg/kg/day
Rat [3]; [19]
  NEL: 5 mg/kg/day
  NOAEL: 5 mg/kg/day
Rat [4]; [20]
  LOAEL: 5 mg/kg/day
  NOAEL: < 5 mg/kg/day
Rat [4]; [21]
  LEL: 5 mg/kg/day
  NEL: < 5 mg/kg/day

## Cc1ccc(S(=O)(=O)C(I)I)cc1 [Diiodomethyl 4-methylphenyl sulfone]
Rat [5]; [22]
  LEL: 80 mg/kg/day
  LOAEL: > 200 mg/kg/day
  NEL: 20 mg/kg/day
  NOAEL: ≥ 200 mg/kg/day
Rat [5]; [23]
  LOAEL: > 200 mg/kg/day
  NOAEL: ≥ 200 mg/kg/day
Rat [5]; [24]
  LEL: 20 mg/kg/day
  NEL: < 20 mg/kg/day
Rat [5]; [25]
  LEL: 80 mg/kg/day
  NEL: 20 mg/kg/day
Rat [5]; [26]
  LOAEL: > 200 mg/kg/day
  NOAEL: ≥ 200 mg/kg/day
Rat [6]; [27]
  LOAEL: > 500 mg/kg/day
  NOAEL: ≥ 500 mg/kg/day
Rat [6]; [28]
  LEL: 20 mg/kg/day
  NEL: < 20 mg/kg/day
Rat [7]; [29]
  LOAEL: 80 mg/kg/day
  NEL: 5 mg/kg/day
  NOAEL: 20 mg/kg/day
Rat [7]; systemic / in life observation / clinical signs / scabbing
  LEL: 20 mg/kg/day
Rat [8]; [30]
  LOAEL: > 40 mg/kg/day
  NEL: 2.5 mg/kg/day
  NOAEL: ≥ 40 mg/kg/day
Rat [8]; group: offspring, systemic / in life observation / body weight / offspring (pup) weight + developmental / offspring survival late / viability index / …
  LEL: 10 mg/kg/day
Rat [8]; [31]
  LOAEL: > 40 mg/kg/day
  NOAEL: ≥ 40 mg/kg/day
Rat [8]; [32]
  LEL: 2.5 mg/kg/day
  NEL: < 2.5 mg/kg/day
Rat [8]; [33]
  LEL: 40 mg/kg/day
  LOAEL: > 40 mg/kg/day
  NEL: 10 mg/kg/day
  NOAEL: ≥ 40 mg/kg/day
Rat [9]
  LEL: 0.41 ppm
  LOAEL: > 1.74 ppm
  NEL: 0.0579 ppm
  NOAEL: ≥ 1.74 ppm

## Clc1cccc(C(Cl)(Cl)Cl)n1 [Nitrapyrin]
rabbit; [34]
  LEL: 30 mg/kg/day
  LOAEL: 30 mg/kg/day
  NEL: 10 mg/kg/day
  NOAEL: 10 mg/kg/day
rabbit; [35]
  LEL: 30 mg/kg/day
  LOAEL: 30 mg/kg/day
  NEL: 10 mg/kg/day
  NOAEL: 10 mg/kg/day
Mouse [10]; [36]
  LOAEL: 75 mg/kg/day
  NEL: 5 mg/kg/day
  NOAEL: 25 mg/kg/day
Mouse [10]; systemic / pathology microscopic / intestine small / [other] + systemic / pathology gross / intestine small / discolored + systemic / …
  LEL: 25 mg/kg/day
Mouse [11]; [37]
  LOAEL: 125 mg/kg/day
  NOAEL: < 125 mg/kg/day
Mouse [11]; systemic / pathology microscopic / liver / hypertrophy + systemic / pathology microscopic / stomach / hyperkeratosis + systemic / pathology …
  NEL: 250 mg/kg/day
dog
  LEL: 15 mg/kg/day
  LOAEL: 15 mg/kg/day
  NEL: 3 mg/kg/day
  NOAEL: 3 mg/kg/day
Rat [12]; [38]
  LEL: 120 mg/kg/day
  LOAEL: 120 mg/kg/day
  NEL: 50 mg/kg/day
  NOAEL: 50 mg/kg/day
Rat [12]; [39]
  LOAEL: 120 mg/kg/day
  NEL: 15 mg/kg/day
  NOAEL: 50 mg/kg/day
Rat [12]; group: maternal, systemic / in life observation / body weight / body weight gain
  LEL: 50 mg/kg/day
Rat [13]; systemic / in life observation / body weight / body weight gain
  LOAEL: 20 mg/kg/day
Rat [13]; systemic / in life observation / body weight / body weight gain + systemic / in life observation / body weight / body weight
  LEL: 20 mg/kg/day
Rat [13]; [40]
  NEL: 5 mg/kg/day
  NOAEL: 5 mg/kg/day
Mouse [14]
  LEL: 200 mg/kg/day
  LOAEL: 200 mg/kg/day
  NEL: < 200 mg/kg/day
  NOAEL: < 200 mg/kg/day
Rat [15]; [41]
  LOAEL: 75 mg/kg/day
  NEL: 20 mg/kg/day
  NOAEL: 20 mg/kg/day
Rat [15]; group: offspring, systemic / in life observation / body weight / offspring (pup) weight + systemic / pathology microscopic / liver / vacuolization + systemic…
  LEL: 75 mg/kg/day
Rat [15]; group: parental, systemic / organ weight / kidney / absolute + systemic / organ weight / kidney / relative to body weight + systemic / in life observation / …
  NOAEL: 5 mg/kg/day
Rat [15]; group: parental, systemic / organ weight / kidney / absolute + systemic / organ weight / kidney / relative to body weight + systemic / organ weight / liver…
  LOAEL: 20 mg/kg/day
Rat [15]; [42]
  LEL: 5 mg/kg/day
  NEL: < 5 mg/kg/day
